The source of these data is ChEMBL document CHEMBL1799910, “Optimization of 1,2,3,4-tetrahydroacridin-9(10H)-ones as antimalarials utilizing structure-activity and structure-property relationships” (J Med Chem, 2011).

The structures appear in SMILES notation. Converted amounts (≈) assume the structure as drawn.

The subject of series [1] is Plasmodium falciparum. Briefly: Antimalarial activity against chloroquine and pyrimethamine-resistant Plasmodium falciparum W2 infected in human A positive erythrocytes after 72 hrs by SYBR Green I assay. Type of series: functional, organism-based. As to conditions: W2, 72 h.
Series [2] deals with Plasmodium falciparum. Briefly: Antimalarial activity against chloroquine, mefloquine, pyrimethamine and atovaquone-resistant Plasmodium falciparum TM90-C2B infected in human A positive erythrocytes after 72 hrs by SYBR Green I assay. It counts as functional, organism-based.
The test system of series [3] is Plasmodium falciparum. Kind of series: Resistance index, ratio of EC50 for chloroquine, mefloquine, pyrimethamine and atovaquone-resistant Plasmodium falciparum TM90-C2B to EC50 for chloroquine and pyrimethamine-resistant Plasmodium falciparum W2. Type of series: functional.
In another series the test system is J774. Briefly: Cytotoxicity against mouse J774 cells after 72 hrs by Cell titer 96 aqueous one solution cell proliferation assay. Type of series: cell-based. Particulars: J774, 72 h.
The nature of series [4]: Aqueous solubility of compound at pH 7.4 by HPLC analysis. As to conditions: buffer.
Series [5] in a line: Permeability of the compound by PAMPA method at pH 7.4. Type of series: ADME. Particulars: read-out: permeability. Background: PAMPA measures passive passage across an artificial lipid membrane.
Series [6] in a line: Partition coefficient, log D of the compound at pH 7.4 by HPLC analysis. As to conditions: octanol/water.
The nature of series [7]: Cytotoxicity index, ratio of EC50 for mouse J774 cells to EC50 for chloroquine, mefloquine, pyrimethamine and atovaquone-resistant Plasmodium falciparum TM90-C2B. Type of series: cell-based. Particulars: read-out: Ratio EC50.
The nature of series [8]: Stability in mouse liver microsomes. Particulars: liver microsomes. It counts as ADME, Microsome.

As to `O=c1c2c([nH]c3ccc(-c4ccc(COc5ccc(OC(F)(F)F)cc5)cc4)cc13)CCSC2`, the EC50 – broadly, the concentration that produces a half-maximal response – is 129 nM in the series on Plasmodium falciparum [1], 2840 nM in the series on Plasmodium falciparum [2] and greater than 10000 nM in the series with J774. Further, in the series on Plasmodium falciparum [3], the “Ratio EC50” value came to 22. For the same compound, the solubility (commonly how much of the substance goes into solution per volume) in series [4] was 12 µM (≈ 5.8 µg/mL). In series [5], the Papp was 3 ×10⁻⁶ cm/s. Further, the logD (usually the decadic logarithm of the distribution of all forms, ionised or not, between an organic phase and buffer at a given pH) in [6] was determined as 3.5. Besides, the selectivity ratio in series [7] is no less than 100.

`O=c1c2c([nH]c3ccc(-c4ccc(COc5ccccc5)cc4)cc13)CCSC2`: the EC50 in the series with Plasmodium falciparum [1] is 44.5 nM; in the series on Plasmodium falciparum [2] it was 706 nM; in the series on J774, greater than 1000 nM. The “Ratio EC50” value in the series on Plasmodium falciparum [3] is recorded as 15.9. In series [4], the solubility stood at 1 µM (≈ 0.4 µg/mL). Besides, in [5], the Papp worked out at 7 ×10⁻⁶ cm/s. Further, the log distribution coefficient (logD) in series [6] amounted to 2.8. The selectivity ratio in series [7] was no less than 100.

In the case of `O=c1c2c([nH]c3ccc(-c4ccc(OCc5ccccc5)cc4)cc13)CCSC2`, the EC50 with Plasmodium falciparum [1] is 35.9 nM; in the series on Plasmodium falciparum [2], 370 nM; in the series on J774, greater than 1000 nM. In addition, the “Ratio EC50” value in the series on Plasmodium falciparum [3] worked out at 10.3. The same compound had a solubility in series [4] of 1 µM (≈ 0.4 µg/mL). The Papp in series [5] was less than 1 ×10⁻⁶ cm/s. Moreover, the logD in series [6] turned out to be 2.8. Moreover, in [7], the selectivity ratio was no less than 100.

Turning to `O=c1c2c([nH]c3cc(-c4c(F)cccc4F)ccc13)CCCC2`, the EC50 is 72.3 nM in the series with Plasmodium falciparum [1], 25.3 nM with Plasmodium falciparum [2] and greater than 100 nM in the series with J774. In addition, the “Ratio EC50” value in the series on Plasmodium falciparum [3] was 0.35. Besides, the concentration in solution in [4] (solubility) came to 0.3 µM (≈ 0.0934 µg/mL). In addition, the Papp in series [5] is 339 ×10⁻⁶ cm/s. Moreover, the logD in series [6] was 3. For the same compound, the selectivity ratio in series [7] is no less than 100.

With `CN(C)c1ccc(-c2ccc3c(=O)c4c([nH]c3c2)CCCC4)cc1`, the EC50 with Plasmodium falciparum [1] is 99.2 nM; with Plasmodium falciparum [2] it was 161 nM; in the series with J774, greater than 10000 nM. For the same compound, the “Ratio EC50” value in the series with Plasmodium falciparum [3] stood at 1.62. The solubility in series [4] worked out at 11 µM (≈ 3.5 µg/mL). For the same compound, the Papp in [5] was 199 ×10⁻⁶ cm/s. Moreover, in series [6], the logD came to 1.3. In addition, the selectivity ratio in series [7] was no less than 100.

Regarding `COc1ccc2c(=O)c3c([nH]c2c1)CCCC3`, the values for the EC50 with Plasmodium falciparum [1], in the series on Plasmodium falciparum [2] and in the series with J774 were 89.9 nM, 99.9 nM and greater than 40000 nM, respectively. Also, the “Ratio EC50” value in the series on Plasmodium falciparum [3] is 1.11. In [4], this compound yielded a solubility of 82 µM (≈ 18.8 µg/mL). Further, the Papp in series [5] was 25 ×10⁻⁶ cm/s. In addition, the logD in series [6] was determined as 1.9. Also, in series [8], the half-life (in general, how long it takes for the measured level to halve) was 6.8 min. In addition, the selectivity ratio in series [7] was no less than 100.

As to `Cc1cccc2c(=O)c3c([nH]c12)CCCC3`, the values for the EC50 in the series with Plasmodium falciparum [1], with Plasmodium falciparum [2] and in the series on J774 were 2200 nM, 888 nM and greater than 40000 nM, respectively. For the same compound, in the series with Plasmodium falciparum [3], the “Ratio EC50” value is recorded as 0.4. Further, the solubility in [4] is 47 µM (≈ 10 µg/mL). Also, the Papp in series [5] is 26 ×10⁻⁶ cm/s. In [6], this compound showed a logD of 1.9. The compound also registered a half-life in series [8] of 6.4 min. Further, the selectivity ratio in [7] was no less than 100.

As for `Cc1ccc2c(=O)c3c([nH]c2c1)CCCC3`, the EC50 is 150 nM in the series on Plasmodium falciparum [1], 152 nM in the series with Plasmodium falciparum [2] and greater than 40000 nM with J774. Also, the “Ratio EC50” value in the series on Plasmodium falciparum [3] was 1.01. In series [4], this compound had a solubility of 89 µM (≈ 19 µg/mL). Also, the Papp in series [5] is 27 ×10⁻⁶ cm/s. In addition, the logD in series [6] worked out at 2. This compound also came in with a half-life in series [8] of 20.1 min. Moreover, the selectivity ratio in series [7] is no less than 100.

For the compound `COc1cc2[nH]c3c(c(=O)c2cc1Cl)CCCC3`, the EC50 was 30.6 nM in the series on Plasmodium falciparum [1], 24.1 nM in the series with Plasmodium falciparum [2] and greater than 10000 nM with J774. The “Ratio EC50” value in the series on Plasmodium falciparum [3] is listed as 0.79. For the same compound, the solubility in series [4] was 17 µM (≈ 4.48 µg/mL). Further, the Papp in [5] is 85 ×10⁻⁶ cm/s. The same compound gave a logD in [6] of 2.2. In addition, the selectivity ratio in [7] is no less than 100.

On to `COc1cc2[nH]c3c(c(=O)c2cc1Cl)CSCC3`, for which the EC50 in the series with Plasmodium falciparum [1] was 26.3 nM; with Plasmodium falciparum [2], 130 nM; in the series on J774, greater than 10000 nM. Besides, in the series with Plasmodium falciparum [3], the “Ratio EC50” value is 4.94. In series [4], this compound returned a solubility of 13 µM (≈ 3.66 µg/mL). For the same compound, in series [5], the Papp is 101 ×10⁻⁶ cm/s. In series [6], the logD worked out at 1. Further, the selectivity ratio in series [7] was no less than 100.

On to `COc1cc2[nH]c3c(c(=O)c2cc1C)CCCC3`, for which the values for the EC50 with Plasmodium falciparum [1], in the series with Plasmodium falciparum [2] and in the series on J774 were 34.8 nM, 16.2 nM and greater than 20000 nM, respectively. The “Ratio EC50” value with Plasmodium falciparum [3] is 0.46. Moreover, in series [4], the concentration in solution (solubility) came to 23 µM (≈ 5.6 µg/mL). Besides, the Papp in [5] amounted to 50 ×10⁻⁶ cm/s. The compound also gave a logD in series [6] of 2. For the same compound, in series [7], the selectivity ratio is no less than 100.

In the case of `COc1cc2[nH]c3c(c(=O)c2cc1C)CSCC3`, the results for the EC50 in the series with Plasmodium falciparum [1], in the series with Plasmodium falciparum [2] and in the series with J774 were 113 nM, 96.9 nM and greater than 10000 nM, respectively. The “Ratio EC50” value with Plasmodium falciparum [3] was determined as 0.86. The same compound had a solubility in [4] of 14 µM (≈ 3.66 µg/mL). The Papp in [5] was 68 ×10⁻⁶ cm/s. This compound returned a logD in series [6] of 0.9. Moreover, the selectivity ratio in series [7] is no less than 100.

Take `COc1cc2[nH]c3c(c(=O)c2cc1Cl)C[S+]([O-])CC3` (stereo not drawn): the EC50 with Plasmodium falciparum [1] was 4710 nM; with Plasmodium falciparum [2] it was 1360 nM; with J774, greater than 40000 nM. Also, the logD in [6] was 1.3. In addition, the half-life in series [8] was 990 min.

`O=c1c2c([nH]c3ccc(-c4ccncc4)cc13)CCSC2`: the 50% effective concentration (EC50) is 6210 nM in the series with Plasmodium falciparum [1], 4990 nM in the series on Plasmodium falciparum [2] and greater than 20000 nM in the series with J774. Further, the “Ratio EC50” value with Plasmodium falciparum [3] is reported as 0.8. For the same compound, the solubility in series [4] was 45 µM (≈ 13.2 µg/mL). Moreover, in series [5], the Papp was 15 ×10⁻⁶ cm/s. The pH-dependent lipophilicity (logD) in [6] came out at 0.8. For the same compound, in [7], the selectivity ratio is no less than 100.

Take `O=c1c2c([nH]c3ccc(-c4cccnc4)cc13)CCSC2`: the figures for the EC50 in the series with Plasmodium falciparum [1], in the series on Plasmodium falciparum [2] and in the series with J774 were 7620 nM, 8490 nM and greater than 20000 nM, respectively. In addition, the “Ratio EC50” value in the series with Plasmodium falciparum [3] was 1.11. In series [4], this compound came in with a solubility of 37 µM (≈ 10.9 µg/mL). The Papp in series [5] worked out at 3 ×10⁻⁶ cm/s. Moreover, in series [6], the logD turned out to be 0.8. In series [7], the selectivity ratio is no less than 100.

`O=c1c2c([nH]c3ccc(-c4ccc(F)cc4F)cc13)CCSC2`: the EC50 was 193 nM in the series with Plasmodium falciparum [1], 78.4 nM in the series with Plasmodium falciparum [2] and greater than 5000 nM in the series with J774. Moreover, the “Ratio EC50” value with Plasmodium falciparum [3] came to 0.41. The compound further yielded a solubility in series [4] of 7 µM (≈ 2.31 µg/mL). In addition, in series [5], the Papp is 10 ×10⁻⁶ cm/s. In [6], this compound showed a logD of 3.6. The selectivity ratio in series [7] is no less than 100.

Regarding `O=c1c2c([nH]c3ccc(-c4ccc(OC(F)(F)F)cc4)cc13)CCSC2`, the values for the EC50 in the series on Plasmodium falciparum [1], in the series on Plasmodium falciparum [2] and with J774 were 95.1 nM, 58 nM and greater than 1000 nM, respectively. Besides, the “Ratio EC50” value with Plasmodium falciparum [3] turned out to be 0.61. In [4], the concentration in solution (solubility) was 1 µM (≈ 0.377 µg/mL). In addition, in [5], the Papp was less than 1 ×10⁻⁶ cm/s. This compound also displayed a logD in [6] of 2.5. In series [7], the selectivity ratio is no less than 100.

For the compound `O=c1c2c([nH]c3ccc(-c4cccc(Oc5ccc(F)cc5)c4)cc13)CCSC2`, the EC50 with Plasmodium falciparum [1] was 40.9 nM; in the series on Plasmodium falciparum [2], 143 nM; in the series with J774 it was greater than 100 nM. The “Ratio EC50” value in the series with Plasmodium falciparum [3] was 3.5. The same compound gave a solubility in series [4] of 0.3 µM (≈ 0.121 µg/mL). Moreover, in series [5], the Papp was 2 ×10⁻⁶ cm/s. Also, the logD in series [6] was 2.8. For the same compound, the selectivity ratio in [7] is no less than 100.

For the compound `O=c1c2c([nH]c3ccccc13)CCCC2`, the EC50 in the series with Plasmodium falciparum [1] was 719 nM; with Plasmodium falciparum [2], 325 nM; with J774 it was greater than 40000 nM. For the same compound, the “Ratio EC50” value in the series on Plasmodium falciparum [3] is 0.45. In series [4], this compound yielded a solubility of 24 µM (≈ 4.78 µg/mL). Further, in series [5], the Papp amounted to 10 ×10⁻⁶ cm/s. In [6], this compound gave a logD of 3. This compound had a half-life in series [8] of 18.2 min. For the same compound, the selectivity ratio in series [7] is no less than 100.
